Data published in patent US7572606B1 (Nereus Pharmaceuticals, Inc., priority 2005, dated 2009).
“And” between values parts separate entries of the source, which are not always exact repeats. Equal values may be shown once. Read-outs that look alike come from different tables or passages of the source.

Assays:
B16-F10 = experiment: Cell growth inhibition, resazurin, 48 h; assay type: cell-based, mouse; details: Mus musculus, B16-F10, 48 h, B16-F10, 48 h drug exposure; read-out: EC50
Protocol: (§1) RPMI 8226 (CCL-155), HT-29 (HTB-38), and B16-F10 (CRL-6475) cells were purchased from ATCC. RPMI 8226 cells were maintained in RPMI 1640 media supplemented with 10% (v/v) FBS, 2 mM L-glutamine, 1 mM sodium pyruvate and Penicillin/Streptomycin at 100 IU/ml and 100 μg/ml, respectively. HT-29 cells were maintained in McCoys 5A supplemented with 10% (v/v) FBS, 2 mM L-glutamine, 1 mM sodium pyruvate, 1% (v/v) non-essential amino acids, 10 mM HEPES and Penicillin/Streptomycin at 100 IU/ml and 100 μg/ml, respectively. B16-F10 cells were maintained in DMEM supplemented with 10% (v/v) FBS, 2 mM L-glutamine, 10 mM HEPES and Penicillin/Streptomycin at 100 IU/ml and 100 μg/ml, respectively.
(§2) RPMI 8226 cells were seeded at 2×10^4 cells/well in 90 μl RPMI media containing 10% (v/v) FBS or 1% (v/v) FBS into 96 well black-walled, clear-bottom tissue culture plates. […] Formulae II-16, II-17 and Formula II-18 were serially diluted in media containing 1% or 10% FBS and added in triplicate to the test wells. […] The final concentration of Formula II-18 ranged from 2 μM to 630 pM.

MES-SA/Dx5 = experiment: Cell growth inhibition, resazurin, 48 h; details: MES-SA/Dx5, 48 h drug exposure
Protocol: (§3) Concentrations ranging from 6.32 μM to 2 nM were tested for II-2 and II-4.

HT-29 = experiment: Cell growth inhibition, resazurin, 48 h; assay type: cell-based, human; details: Homo sapiens; HT-29, 48 h drug exposure; read-out: EC50
Protocol: as §1, §2

[1] = tested on: NF-κB-mediated luciferase activity in HEK293 NF-κB/Luc cells; experiment: NF-κB-mediated luciferase reporter gene assay; assay type: cell-based, human; details: for luciferase activity upon TNF-α stimulation: pretreatment of NF-κB/Luc 293 cells; for EC50: 6 h TNF-α stimulation, read-out: EC50
Protocol: The HEK293 NF-κB/luciferase reporter cell line is a derivative of the human embryonic kidney cell line (ATCC; CRL-1573) and carries a luciferase reporter gene under the regulation of 5×NF-κB binding sites. […] When performing the luciferase assay, the DMEM basal medium was replaced with phenol-red free DMEM basal medium and the G418 was omitted.
For NF-κB-mediated luciferase assays, HEK293 NF-κB/luciferase cells were seeded at 1.5×10^4 cells/well in 90 μl phenol-red free DMEM complete medium into Corning 3917 white opaque-bottom tissue culture plates. For Formulae II-2, II-4, II-5A and II-18, a 400 μM starting dilution was made in 100% DMSO and this dilution was used to generate an 8-point half log dilution series. […] For formula II-20, a 2.5 mM or 8 mM starting dilution was made in 100% DMSO and the final test concentrations ranged from 6.3 μM to 2.0 nM or 20 μM to 6.3 nM respectively. The plates were returned to the incubator for 1 hour. After 1 hr pretreatment, 10 μl of a 50 ng/ml TNF-α solution, prepared in the phenol-red free DMEM medium was added, and the plates were incubated for an additional 6 hours.
At the end of the TNF-α stimulation, 100 μl of Steady Lite HTS luciferase reagent (Packard Bioscience) was added to each well and the plates were left undisturbed for 10 min at room temperature before measuring the luciferase activity. The relative luciferase units (RLU) were measured by using a Fusion microplate fluorometer (Packard Bioscience).
NF-κB inducible luciferase activity was measured at 6 hours.

[2] = target: caspase-like (PGPH) activity of rabbit muscle 20S proteasome (Oryctolagus cuniculus, UniProt A0A5F9DQW2); experiment: In vitro inhibition of 20S proteasome, Z-LLE-AMC
Sequence of caspase-like (PGPH) activity of rabbit muscle 20S proteasome (A0A5F9DQW2 1-212): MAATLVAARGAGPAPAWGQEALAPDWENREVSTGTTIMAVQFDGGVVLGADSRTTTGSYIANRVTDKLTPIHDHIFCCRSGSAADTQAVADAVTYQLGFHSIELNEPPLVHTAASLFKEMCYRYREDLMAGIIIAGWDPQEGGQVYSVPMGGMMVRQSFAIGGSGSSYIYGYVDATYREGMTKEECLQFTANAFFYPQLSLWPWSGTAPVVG

HL-60 = experiment: Cell growth inhibition, resazurin, 48 h; details: Homo sapiens, HL-60, 48 h, HL-60, 48 h drug exposure
Protocol: (§4) The DNA binding agent Mitoxantrone was included as a control, as HL-60/MX2 cells are reported to be resistant to this chemotherapeutic agent (Harker W. G. et al. 1989).
as §3

[3] = target: T1, trypsin-like activity of rabbit muscle 20S proteasome (Oryctolagus cuniculus, UniProt G1SWK8); experiment: In vitro inhibition of 20S proteasome, Boc-LRR-AMC; assay type: biochemical
T1 construct: EC50 Trypsin-like; other: purified rabbit 20S proteasome, Boc-LRR-AMC; other: under the conditions tested
T1 sequence (G1SWK8 1-271): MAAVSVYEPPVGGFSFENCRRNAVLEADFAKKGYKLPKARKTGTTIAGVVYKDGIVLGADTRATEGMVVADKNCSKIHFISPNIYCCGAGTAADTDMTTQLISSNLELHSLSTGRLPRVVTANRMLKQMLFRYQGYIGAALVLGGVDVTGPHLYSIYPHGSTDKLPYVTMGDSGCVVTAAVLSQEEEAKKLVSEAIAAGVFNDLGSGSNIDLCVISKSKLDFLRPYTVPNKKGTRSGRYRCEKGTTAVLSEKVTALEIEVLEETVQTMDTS

RPMI 8226 = experiment: Cell growth inhibition, resazurin, 48 h; details: RPMI 8226, 48 h drug exposure
Protocol: as §1, §2

U266 = experiment: Cell growth inhibition, resazurin, 48 h; assay type: cell-based, human; details: U266, 48 h drug exposure, read-out: EC50
OVCAR-3 = experiment: Cell growth inhibition, resazurin, 48 h; assay type: cell-based, human; details: Homo sapiens; OVCAR-3, 48 h drug exposure; read-out: EC50
HL-60/MX2 = experiment: Cell growth inhibition, resazurin, 48 h; details: Homo sapiens, HL60/MX2, 48 h, HL-60/MX2, 48 h drug exposure
Protocol: as §4, §3

SMILES: C[C@@]12OC(=O)[C@]1([C@@H](O)C1CCCCC1)NC(=O)[C@@H]2CCCl [Formula II-2]
- EC50 (B16-F10): 194 nM
- EC50 (MES-SA/Dx5; Homo sapiens, MES-SA/Dx5, 48 h): 220 nM
- EC50 (MES-SA/Dx5): 138 nM
- EC50 (HT-29): 129 ± 21 nM
- luciferase activity upon TNF-α stimulation [1]: dose-dependent decrease of luciferase activity
- EC50 ([2]; read-out: EC50 Caspase-like, purified rabbit 20S proteasome, Z-LLE-AMC): 1300 nM and 1700 nM
- EC50 (HL-60): 237 nM
- inhibition of the trypsin-like activity of the 20S proteasome ([3]; under the conditions tested): able to inhibit the trypsin-like activity
- EC50 (RPMI 8226; Homo sapiens, RPMI-8226, 48 h): 49 nM
- EC50 (U266): 39 nM

SMILES: CC[C@H]1C(=O)N[C@@]2([C@@H](O)C3CCCCC3)C(=O)O[C@@]12C [Formula II-3]
- EC50 (MES-SA/Dx5; Homo sapiens, MES-SA/Dx5, 48 h): > 20000 nM
- EC50 (HT-29): > 20000 nM
- EC50 ([2]; read-out: EC50 Caspase-like): > 20000 nM
- inhibition of the trypsin-like activity of the 20S proteasome [3]: able to inhibit the trypsin-like activity
- EC50 (RPMI 8226; Homo sapiens, RPMI-8226, 48 h): > 20000 nM
- EC50 (U266; Homo sapiens, U-266, 48 h): > 20000 nM

SMILES: C[C@@]12OC(=O)[C@]1([C@@H](O)C1CCCCC1)NC(=O)[C@@H]2CCBr [Formula II-4]
- EC50 (B16-F10): 163 nM
- EC50 (OVCAR-3): > 6320 nM
- EC50 (MES-SA/Dx5; Homo sapiens, MES-SA/Dx5, 48 h): 178 nM
- EC50 (MES-SA/Dx5): 93 nM
- EC50 ([1]; 1 h pretreatment): 88 nM
- EC50 ([1]; Homo sapiens, HEK293, 1 h pretreatment): 67 nM
- luciferase activity upon TNF-α stimulation [1]: dose-dependent decrease of luciferase activity
- EC50 ([2]; read-out: EC50 Caspase-like (PGPH)): 850 nM and 637 nM
- EC50 (HL-60/MX2): 97 nM
- EC50 (HL-60): 143 nM
- inhibition of the trypsin-like activity of the 20S proteasome [3]: able to inhibit the trypsin-like activity
- EC50 (RPMI 8226; Homo sapiens, RPMI-8226, 48 h): 57 nM
- EC50 (RPMI 8226): 51 nM
- EC50 (U266; Homo sapiens, U-266, 48 h): 34 nM
- EC50 (U266): 39 nM
